Like-named read-outs stand apart in the source and are kept apart here.
What was measured:
HepG2 cells = conditions: cited from earlier work
[1] = Half-life of SA in the blood; type: in vivo; conditions: estimated
[2] = system: paws injected with carrageenan; conditions: mice, intraperitoneally 200 mg/kg; cited from earlier work
[3] = Single ascending dose study: safety and tolerability (adverse events, ECG, vital signs, laboratory parameters); type: in vivo, human
Excerpt: (§1) Healthy male and non-pregnant female volunteers over 18 years of age were eligible to participate. Subjects were not permitted to take any medications 2 weeks prior to or during the study. Exclusion criteria included known cardiac, kidney, or hepatic disease; presence of diseases that could manifest morbidity or symptoms/signs that could confound interpretation of the study results; the need to discontinue any drug administered as standard of care treatment; and the unwillingness or inability to use approved birth-control methods.
(§2) This study was an open-label, single ascending dose study designed to assess pharmacokinetics, safety, and tolerability of single doses of 2-hydroxybenzylamine acetate. A 3+3 clinical trial design with a modified Fibonacci sequence dosing scheme^14 was used with a starting dose of 50 mg; thereafter, dosages were increased to 100, 200, 330, 550, and 825 mg. These doses of 2-hydroxybenzylamine acetate correspond to 34, 68, 136, 224, 373, and 560 mg 2-hydroxybenzylamine. Each dose escalation was initiated only after reviewing safety data from all subjects receiving the previous dose.
(§3) Subjects were admitted to the Vanderbilt University Clinical Research Center and remained on the unit for 24 hours after administering 2-hydroxybenzylamine acetate orally in capsules to participants. […] Subjects were monitored at protocol-defined intervals for 24 hours after administration of 2-hydroxybenzylamine. Safety assessments included vital signs (heart rate, respiration rate, blood pressure, and SpO2), clinical laboratory parameters (blood biochemistry, hematology, and urinalysis), 12-lead ECGs, and potential adverse event assessments. All adverse events were recorded, regardless of whether they were considered study-related.

γKA protein adducts = conditions: compared with PM; cited from earlier work
[4] = mice, drinking water, 1 to 10 grams per liter; cited from earlier work
sodium channel = conditions: cited from earlier work
[5] = Single ascending dose study: plasma pharmacokinetics of 2-hydroxybenzylamine; type: in vivo, human; conditions: for Cmax / Tmax / AUC(0-inf) / half-life: both sexes, human, plasma; for AUC(0-inf): read-out: AUC (zero to infinity)
Excerpt: as §1
2-Hydroxybenzylamine (as the acetate salt, CAS 1206675-01-5) was obtained from TSI (China) Co., Ltd. (Shanghai, China). A commercial production lot was used (Lot 16120312). Our laboratory verified the purity of the commercial lot to be >99% via HPLC and NMR spectroscopy. Hard gel capsules (Capsugel, Jiangsu, China) containing 50, 110, and 412.5 mg of 2-hydroxybenzylamine acetate (corresponding to 34, 75, and 281 mg 2-hydroxybenzylamine) were prepared by TSI (China) Co., Ltd. Determinations of average fill weight, uniformity of weight, disintegration, 2-hydroxybenzylamine content, acetate content, and microbial and analytical tests were within all specification limits.
as §2, §3
Blood samples for pharmacokinetic analyses were collected at baseline, 0.25, 0.5, 1, 2, 6, 4, 8, and 24 hours after 2-hydroxybenzylamine acetate administration for all dose levels. The 0.25-hour sample was only collected for dosages≤200 mg, and the 6-h sample was only collected for dosages≥330 mg.
[^2H4]-2-hydroxybenzylamine, prepared by Dr. Venkataraman Amarnath as previously described^11, was used as an internal standard. An internal standard solution (100 ng/mL) of ([^2H4]-2-hydroxybenzylamine was prepared in acetonitrile and added to all standards, quality control samples, and patient samples. Standard and quality control samples of 1 mg/mL 2-hydroxybenzylamine were prepared in water. Eight standard curve samples (5, 10, 20, 100, 200, 1000, 2000, and 5000 ng/mL) were prepared with blank human plasma (Bioreclamation, Westbury, NY). In addition, three quality control samples (15, 300, and 3000 ng/mL) were prepared in blank human plasma. Plasma samples were allowed to thaw at room temperature and then vortexed. Internal standard solution (400 μL) and 100 μL of either plasma, quality controls, or standards were added and mixed in a protein precipitation filter 96-well plate (Phenomenex, Torrance, CA). The solution was eluted into a 96-well plate using a positive pressure manifold and then dried under nitrogen gas at 40° C. The samples were then reconstituted in 97/3 v/v water/acetonitrile with 10 mM ammonium formate for analysis. […]

[6] = in vivo; cited from earlier work
[7] = single oral dose 50 mg 2-hydroxybenzylamine acetate, mean, n = 3
[8] = single oral dose 100 mg 2-hydroxybenzylamine acetate, mean, n = 3

Q: For `NCc1ccccc1O` [2-hydroxybenzylamine], which “protection of HepG2 cells from cytotoxicity induced by hydrogen peroxide” value (HepG2 cells) is on record?
A: protects

Q: And the half-life [1]?
A: ~120 min

Q: What about the “edema in paws injected with carrageenan” value [2] of the same compound?
A: decreased edema

Q: What about the “serious adverse events or deaths” value ([3]; all doses) of the same compound?
A: no serious adverse events or deaths

Q: And the “participants who reported at least 1 adverse event” value ([3]; both, human, in vivo, 24 h)?
A: 28%

Q: And the “subjects with frequent urination (most common adverse event)” value ([3]; both, human, in vivo, 24 h)?
A: 11%

Q: And the “adverse event frequency or severity versus dose” value ([3]; in vivo)?
A: no dose-dependent increase

Q: And the “changes in ECG recordings, vital signs, or laboratory parameters” value ([3]; in vivo)?
A: No clinically significant changes

Q: What about the “intensity of adverse events” value ([3]; in vivo) of the same compound?
A: mild

Q: What about the study-related adverse events ([3]; in vivo) of the same compound?
A: No adverse events were determined to be study-related

Q: What about the “inhibition of γKA protein adducts in cells” value (γKA protein adducts) of the same compound?
A: significantly better inhibitor of γKA protein adducts in cells than PM

Q: What about the tissue concentrations [4] of the same compound?
A: 10 to 500 µM

Q: And the “protection of sodium channel function inhibited by γKA or oxidants” value (sodium channel)?
A: protects

Q: What about the Cmax [5, 7] of the same compound?
A: 90 ng/mL

Q: What about the Tmax [5, 7] of the same compound?
A: 1.33 h

Q: And the AUC(0-inf) [5, 7]?
A: 396 ng·h/mL

Q: And the half-life ([5]; single oral dose 50 mg 2-hydroxybenzylamine acetate, mean, n = 3, read-out: Half-life (converted))?
A: 122 min

Q: And the Cmax [5, 8]?
A: 156 ng/mL

Q: What about the Tmax [5, 8] of the same compound?
A: 1.33 h

Q: What about the AUC(0-inf) [5, 8] of the same compound?
A: 622 ng·h/mL

Q: What about the half-life ([5]; single oral dose 100 mg 2-hydroxybenzylamine acetate, mean, n = 3, read-out: Half-life (converted)) of the same compound?
A: 140 min

Q: What about the half-life ([5]; single oral doses, overall mean, read-out: mean half-life (converted)) of the same compound?
A: 126 min

Q: What about the AUCextrap [5, 7] of the same compound?
A: 9.1%

Q: And the AUCextrap [5, 8]?
A: 11.2%

Q: What about the “Cmax and AUC versus dose” value ([5]; single oral doses 50-825 mg 2-hydroxybenzylamine acetate) of the same compound?
A: dose-dependent changes

Q: With `Cc1ncc(CO)c(CN)c1O` [PM, pyridoxamine] as the compound, how does the “protection of HepG2 cells from cytotoxicity induced by hydrogen peroxide” value (HepG2 cells) read?
A: ineffective

Q: Which results are given for `CC(=O)O.NCc1ccccc1O` [2-Hydroxybenzylamine acetate, 2-hydroxybenzylamine acetate]?
A: Abdominal bloating ([3]; both, human, in vivo, 24 h): 1 n (%); Any event ([3]; both, human, in vivo, 24 h): 5 n (%); Frequent urination ([3]; both, human, in vivo, 24 h): 2 n (%); Headache ([3]; both, human, in vivo, 24 h): 1 n (%); Itchy throat ([3]; both, human, in vivo, 24 h): 1 n (%); Rash ([3]; both, human, in vivo, 24 h): 1 n (%); Sleepiness ([3]; both, human, in vivo, 24 h): 1 n (%)

Q: Which “salicylate in the blood bound to protein” value [6] does the source give for `O=C(O)c1ccccc1O` [salicylic acid] here?
A: 80-90%

From US12435025B2, “Triphenylphosphonium-tethered salicylamine derivatives” (MTI BIOTECH, INC., priority 2019, dated 2025)
